Key:
Experiment in all cases: relative viability (nuclei count vs DMSO), 5 days (fraction); higher = more cells survive
Pictilisib + Bortezomib = compound: CS(=O)(=O)N1CCN(Cc2cc3nc(-c4cccc5[nH]ncc45)nc(N4CCOCC4)c3s2)CC1 [Pictilisib] + CC(C)C[C@H](NC(=O)[C@H](Cc1ccccc1)NC(=O)c1cnccn1)B(O)O [Bortezomib] (partner 0.002 µM)
Outline: (§1)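 Relative viability divides the nuclei count in treated wells by that in vehicle wells. Lung cancer cell lines were seeded in 1536-well plates, dosed by pin tool the next day, and fixed and stained after 5 days in one step with final 0.05% Triton X-100, 1% formaldehyde and 1 ug/ml Hoechst. Dosing was a single drug or a fixed anchor-drug dose plus five library-drug doses (not always all listed) in √10 steps, and values are medians of duplicate plates imaged at 4×.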

MK-2206 + Pemetrexed = compound: NC1(c2ccc(-c3nc4ccn5c(=O)[nH]nc5c4cc3-c3ccccc3)cc2)CCC1 [MK-2206] + Nc1nc2[nH]cc(CCc3ccc(C(=O)N[C@@H](CCC(=O)O)C(=O)O)cc3)c2c(=O)[nH]1 [Pemetrexed] (partner 0.2 µM)
Outline: as §1

MK-2206 + Luminespib = compound: NC1(c2ccc(-c3nc4ccn5c(=O)[nH]nc5c4cc3-c3ccccc3)cc2)CCC1 [MK-2206] + CCNC(=O)c1noc(-c2cc(C(C)C)c(O)cc2O)c1-c1ccc(CN2CCOCC2)cc1 [Luminespib] (partner 0.01 µM)
Outline: as §1

Pictilisib + Pemetrexed = compound: CS(=O)(=O)N1CCN(Cc2cc3nc(-c4cccc5[nH]ncc45)nc(N4CCOCC4)c3s2)CC1 [Pictilisib] + Nc1nc2[nH]cc(CCc3ccc(C(=O)N[C@@H](CCC(=O)O)C(=O)O)cc3)c2c(=O)[nH]1 [Pemetrexed] (partner 0.2 µM)
Outline: as §1

Pictilisib + Lapatinib = compound: CS(=O)(=O)N1CCN(Cc2cc3nc(-c4cccc5[nH]ncc45)nc(N4CCOCC4)c3s2)CC1 [Pictilisib] + CS(=O)(=O)CCNCc1ccc(-c2ccc3ncnc(Nc4ccc(OCc5cccc(F)c5)c(Cl)c4)c3c2)o1 [Lapatinib] (partner 2 µM)
Outline: as §1

| Cell Line | relative viability (Pictilisib + Bortezomib; first compound 0.02 µM) | relative viability (Pictilisib + Bortezomib; first compound 0.06325 µM) | relative viability (Pictilisib + Bortezomib; first compound 0.6325 µM) | relative viability (Pictilisib + Bortezomib; first compound 2 µM) | relative viability (MK-2206 + Pemetrexed; first compound 0.01 µM) | relative viability (MK-2206 + Pemetrexed; first compound 0.03162 µM) | relative viability (MK-2206 + Pemetrexed; first compound 0.3162 µM) | relative viability (MK-2206 + Pemetrexed; first compound 1 µM) | relative viability (MK-2206 + Luminespib; first compound 0.01 µM) | relative viability (MK-2206 + Luminespib; first compound 0.03162 µM) | relative viability (MK-2206 + Luminespib; first compound 0.3162 µM) | relative viability (MK-2206 + Luminespib; first compound 1 µM) | relative viability (Pictilisib + Pemetrexed; first compound 0.02 µM) | relative viability (Pictilisib + Pemetrexed; first compound 0.06325 µM) | relative viability (Pictilisib + Pemetrexed; first compound 0.6325 µM) | relative viability (Pictilisib + Pemetrexed; first compound 2 µM) | relative viability (Pictilisib + Lapatinib; first compound 0.02 µM) | relative viability (Pictilisib + Lapatinib; first compound 0.06325 µM) | relative viability (Pictilisib + Lapatinib; first compound 0.6325 µM) | relative viability (Pictilisib + Lapatinib; first compound 2 µM) |
| --- | --- | --- | --- | --- | --- | --- | --- | --- | --- | --- | --- | --- | --- | --- | --- | --- | --- | --- | --- | --- |
| LCLC-97TM1 | 0.807 | 0.998 | 0.374 | 0.184 | 0.186 | 0.138 | 0.146 | 0.189 | 0.873 | 0.775 | 0.618 | 0.616 | 0.155 | 0.169 | 0.169 | 0.147 | 0.672 | 0.93 | 0.768 | 0.446 |
| EMC-BAC-2 | 1.05 | 1.2 | 0.917 | 0.68 | 0.435 | 0.377 | 0.439 | 0.407 | 1.22 | 1.18 | 1.08 | 1.07 | 0.45 | 0.451 | 0.424 | 0.41 | 0.906 | 0.924 | 0.735 | 0.575 |
| HOP-62 | 1.15 | 0.986 | 0.693 | 0.652 | 0.381 | 0.272 | 0.273 | 0.375 | 0.91 | 0.899 | 0.919 | 0.854 | 0.319 | 0.271 | 0.267 | 0.271 | 1.15 | 1.44 | 0.931 | 0.742 |
| NCI-H1355 | 1.23 | 1.2 | 1.14 | 0.678 | 1.04 | 1.02 | 1.02 | 1.04 | 0.799 | 0.689 | 0.752 | 0.696 | 1.02 | 1.05 | 1.08 | 0.478 | 1.01 | 1 | 0.981 | 0.615 |
| COR-L23 | 1.1 | 1.04 | 1.03 | 0.963 | 0.184 | 0.187 | 0.195 | 0.172 | 0.713 | 0.695 | 0.581 | 0.529 | 0.187 | 0.185 | 0.199 | 0.19 | 1.2 | 1.08 | 0.993 | 0.77 |
| HCC-44 | 1.04 | 0.9 | 0.994 | 0.631 | 0.632 | 0.593 | 0.61 | 0.675 | 1.05 | 1.2 | 1.21 | 1.09 | 0.655 | 0.642 | 0.695 | 0.673 | 0.86 | 0.977 | 1.06 | 0.674 |
| A-427 | 1.03 | 0.949 | 0.985 | 0.858 | 1.03 | 0.925 | 1.07 | 1.05 | 0.882 | 0.947 | 0.975 | 0.901 | 0.955 | 0.984 | 0.969 | 0.803 | 0.98 | 1.09 | 1 | 0.932 |
| NCI-H520 | 0.632 | 0.464 | 0.291 | 0.156 | 0.612 | 0.68 | 0.351 | 0.183 | 0.213 | 0.214 | 0.203 | 0.207 | 0.613 | 0.624 | 0.268 | 0.148 | 0.834 | 0.864 | 0.365 | 0.164 |
| LXF-289 | 1.04 | 1.05 | 0.993 | 0.819 | 0.886 | 0.873 | 0.956 | 1.17 | 0.661 | 0.722 | 0.728 | 0.771 | 0.948 | 0.874 | 0.983 | 0.669 | 0.91 | 0.929 | 0.925 | 0.793 |
| NCI-H2087 | 0.733 | 0.772 | 0.953 | 0.503 | 0.623 | 0.624 | 0.667 | 0.684 | 0.158 | 0.155 | 0.187 | 0.128 | 0.7 | 0.736 | 0.612 | 0.553 | 1.12 | 0.926 | 1.06 | 0.952 |
| CAL-12T | 1.13 | 1.15 | 0.816 | 0.527 | 1.12 | 1.07 | 1.28 | 1.06 | 0.362 | 0.515 | 0.457 | 0.477 | 1.31 | 1.4 | 1.18 | 1.04 | 0.6 | 0.638 | 0.653 | 0.468 |
| NCI-H596 | 1.02 | 1.09 | 0.487 | 0.435 | 0.45 | 0.567 | 0.502 | 0.498 | 0.984 | 0.919 | 0.889 | 0.737 | 0.472 | 0.508 | 0.509 | 0.318 | 1.1 | 1.02 | 0.602 | 0.367 |
| PC-14 | 1.04 | 0.794 | 0.89 | 0.573 | 0.129 | 0.14 | 0.164 | 0.144 | 0.181 | 0.214 | 0.143 | 0.159 | 0.137 | 0.133 | 0.136 | 0.0862 | 0.34 | 0.302 | 0.236 | 0.113 |
| NCI-H1915 | 0.981 | 1.03 | 0.606 | 0.9 | 0.487 | 0.42 | 0.473 | 0.494 | 0.86 | 0.853 | 0.787 | 0.72 | 0.548 | 0.524 | 0.464 | 0.394 | 0.96 | 1.02 | 0.916 | 0.935 |
| NCI-H647 | 1.19 | 1.07 | 0.965 | 0.513 | 0.201 | 0.165 | 0.144 | 0.134 | 0.0812 | 0.159 | 0.156 | 0.126 | 0.172 | 0.175 | 0.143 | 0.141 | 1.15 | 1.11 | 0.833 | 0.429 |

From the supplement of paper PMC10307832
